Patent publication US20140106967A1, “AUXIN PLANT GROWTH REGULATORS” (The Governors of The University of Alberta, priority 2011, published 2014)

What was measured:
pea pericarp = experiment: Split-pericarp assay: growth of deseeded pea pericarps attached to the plant; type: in vivo, Pisum sativum
Source text: In addition to GAs, developing pea seeds and pericarps contain two auxins, 4-chloroindole-3-acetic acid (4-Cl-IAA) and indole-3-acetic acid (IAA) (Magnus et al. 1997). A split-pericarp assay where test compounds are applied to the inner wall of split and deseeded pericarps that are still attached to the plant has been developed to examine the effects of exogenously applied growth substances on pericarp growth.
During early pea fruit growth, the physiological roles of 4-chloroindole-3-acetic acid (4-Cl-IAA) and IAA, both natural pea auxins, in regulating gibberellin (GA) 20-oxidase gene expression (PsGA20ox1) were tested with 4-position, ring-substituted auxins that have a range of biological activities (fruit growth). The effect of seeds, and natural and synthetic auxins (4-Cl-IAA, and IAA; 4-Me-IAA, 4-Et-IAA and 4-F-IAA, respectively), and auxin concentration (4-Cl-IAA) on PsGA20ox1 mRNA levels in pea pericarp were investigated over a 24 h treatment period. The ability of certain 4-substituted auxins to increase PsGA20ox1 mRNA levels in deseeded pericarp was correlated with their ability to stimulate pericarp growth.

canola cv. Peace = experiment: Greenhouse canola study, foliar auxin spray at green bud stage, with or without heat stress (Tables C1-C4); type: in vivo, Brassica napus; conditions: for % pod set / Seed yield / Total number of flowers / Total number of pods with developing seeds / Total number of racemes / Total number undeveloped pods: heat stress 33° C. 6 h/day, 6 days (Table C2); for % pod set per plant / Seed yield (g) per plant / Total number of flowers per plant / Total number of pods with developing seeds per plant / Total number of racemes per plant / Total number undeveloped pods per plant: non-heat stress (Table C1)
Method: Canola seeds (Brassica napus) from the cultivar Peace were planted at an approximate depth of 1 cm in 5 inch square plastic pots (6 inch pot depth; 4 seeds per pot) in 1:1 Sunshine #4 potting mix (Sun Gro Horticulture, Vancouver, Canada) and sand. The seedlings were thinned to one seedling per pot approximately 2 weeks after seeding. Plants were grown at the University of Alberta in a greenhouse from Nov. 14, 2011 to Mar. 5, 2012. The average temperature was approximately 18° C. day/16° C. night (Nov. 14, 2011 to Feb. 8, 2012) then 21° C. day/19° C. night from Feb. 8 to Mar. 5, 2012. The plants also received supplemental lighting daily (average photon flux density of 250 μE m^−2s^−2) for 16 hours per day (from 6 am to 10 pm).
The auxins, 4-methyl-indole-3-acetic acid (4-ME-IAA) or 4-chloro-indole-3-acetic acid (4-Cl-IAA) at 1×10^−7, 1×10^−6, 1×10^−5, or 1×10^−4M in aqueous 0.1% (v/v) Tween 80 or a control solution (aqueous 0.1% [v/v] Tween 80) were applied one time as a foliar spray to canola plants at the green bud stage (BBCH scale 51; prior to bolting when flower buds are visible from above, but they are tightly clustered and have not extended above smallest leaves surrounding the inflorescence). The experiment was arranged in a completely randomized design in the greenhouse.
The heat stress treatment was imposed by moving plants to receive the heat stress from the greenhouse into a growth chamber for 6 days. The light cycle began at 7:00 hours at a 19° C. air temperature. The heat treatment began at 11:00 hours (33° C. air temperature) and was maintained for 6 hours (until 17:00 hours). Following the heat treatment, the remainder of the light cycle was maintained at a 22° C. air temperature. The dark cycle (began at 23:00 hours) was maintained at 17° C. The photoperiod was 16 h light/8 h dark at an average photon flux density of 492 μE m^−2s^−2 using 54W/835/HO high fluorescent bulbs, Phillips, Holland. This heat treatment cycle was imposed for 6 days. The plants were returned to the greenhouse after the heat stress treatment to develop to maturity.

**Q.** For `Cc1cccc2[nH]cc(CC(=O)O)c12` [4-ME-IAA, 4-methyl-indole-3-acetic acid], which “pericarp growth (biological activity)” value (pea pericarp) is on record?
**A.** second most biologically active auxin

**Q.** And the leaf epinasty (canola cv. Peace; 1×10^−4 M, 24 hours after treatment, milder under heat stress)?
**A.** leaf epinasty was observed

**Q.** What about the “% pod set” value (canola cv. Peace; 1×10^−4 M) of the same compound?
**A.** 60 ± 1%

**Q.** And the Seed yield (canola cv. Peace; 1×10^−4 M)?
**A.** 6.0 ± 1.0 g

**Q.** What about the “Total number of flowers” value (canola cv. Peace; 1×10^−4 M) of the same compound?
**A.** 326 ± 34

**Q.** And the “Total number of pods with developing seeds” value (canola cv. Peace; 1×10^−4 M)?
**A.** 196 ± 19

**Q.** And the “Total number of racemes” value (canola cv. Peace; 1×10^−4 M)?
**A.** 12 ± 1

**Q.** And the “Total number undeveloped pods” value (canola cv. Peace; 1×10^−4 M)?
**A.** 34 ± 10

**Q.** What about the “% pod set per plant” value (canola cv. Peace; 1×10^−4 M) of the same compound?
**A.** 57 ± 2%

**Q.** And the “Seed yield (g) per plant” value (canola cv. Peace; 1×10^−4 M)?
**A.** 4.9 ± 0.4 g

**Q.** And the “Total number of flowers per plant” value (canola cv. Peace; 1×10^−4 M)?
**A.** 261 ± 14

**Q.** What about the “Total number of pods with developing seeds per plant” value (canola cv. Peace; 1×10^−4 M) of the same compound?
**A.** 148 ± 9

**Q.** What about the “Total number of racemes per plant” value (canola cv. Peace; 1×10^−4 M) of the same compound?
**A.** 11 ± 1

**Q.** What about the “Total number undeveloped pods per plant” value (canola cv. Peace; 1×10^−4 M) of the same compound?
**A.** 16 ± 2

**Q.** What about the “increase in total number of flowers per plant vs control” value (canola cv. Peace; 1×10^−5 M, heat stress) of the same compound?
**A.** 43%

**Q.** And the “increase in total number of racemes per plant vs control” value (canola cv. Peace; 1×10^−5 M, heat stress)?
**A.** 38%

**Q.** What about the “% pod set” value (canola cv. Peace; 1×10^−5 M) of the same compound?
**A.** 50 ± 2%

**Q.** And the Seed yield (canola cv. Peace; 1×10^−5 M)?
**A.** 5.9 ± 1.2 g

**Q.** What about the “Total number of flowers” value (canola cv. Peace; 1×10^−5 M) of the same compound?
**A.** 520 ± 102

**Q.** What about the “Total number of pods with developing seeds” value (canola cv. Peace; 1×10^−5 M) of the same compound?
**A.** 259 ± 55

**Q.** And the “Total number of racemes” value (canola cv. Peace; 1×10^−5 M)?
**A.** 18 ± 2

**Q.** What about the “Total number undeveloped pods” value (canola cv. Peace; 1×10^−5 M) of the same compound?
**A.** 64 ± 13

**Q.** And the “% pod set per plant” value (canola cv. Peace; 1×10^−5 M)?
**A.** 62 ± 5%

**Q.** And the “Seed yield (g) per plant” value (canola cv. Peace; 1×10^−5 M)?
**A.** 5.7 ± 0.7 g

**Q.** What about the “Total number of flowers per plant” value (canola cv. Peace; 1×10^−5 M) of the same compound?
**A.** 265 ± 14

**Q.** And the “Total number of pods with developing seeds per plant” value (canola cv. Peace; 1×10^−5 M)?
**A.** 165 ± 18

**Q.** What about the “Total number of racemes per plant” value (canola cv. Peace; 1×10^−5 M) of the same compound?
**A.** 10 ± 0

**Q.** And the “Total number undeveloped pods per plant” value (canola cv. Peace; 1×10^−5 M)?
**A.** 22 ± 6

**Q.** What about the “% pod set” value (canola cv. Peace; 1×10^−6 M) of the same compound?
**A.** 44 ± 7%

**Q.** What about the “Total number of flowers” value (canola cv. Peace; 1×10^−6 M) of the same compound?
**A.** 435 ± 89

**Q.** And the “Total number of pods with developing seeds” value (canola cv. Peace; 1×10^−6 M)?
**A.** 167 ± 15

**Q.** What about the “Total number of racemes” value (canola cv. Peace; 1×10^−6 M) of the same compound?
**A.** 13 ± 2

**Q.** What about the “Total number undeveloped pods” value (canola cv. Peace; 1×10^−6 M) of the same compound?
**A.** 71 ± 37

**Q.** And the “% pod set per plant” value (canola cv. Peace; 1×10^−6 M)?
**A.** 62 ± 3%

**Q.** And the “Total number of flowers per plant” value (canola cv. Peace; 1×10^−6 M)?
**A.** 250 ± 21

**Q.** And the “Total number of pods with developing seeds per plant” value (canola cv. Peace; 1×10^−6 M)?
**A.** 155 ± 16

**Q.** And the “Total number of racemes per plant” value (canola cv. Peace; 1×10^−6 M)?
**A.** 10 ± 1

**Q.** And the “Total number undeveloped pods per plant” value (canola cv. Peace; 1×10^−6 M)?
**A.** 17 ± 5

**Q.** And the “% pod set” value (canola cv. Peace; 1×10^−7 M)?
**A.** 52 ± 4%

**Q.** What about the Seed yield (canola cv. Peace; 1×10^−7 M) of the same compound?
**A.** 5.4 ± 0.9 g

**Q.** And the “Total number of flowers” value (canola cv. Peace; 1×10^−7 M)?
**A.** 418 ± 25

**Q.** What about the “Total number of pods with developing seeds” value (canola cv. Peace; 1×10^−7 M) of the same compound?
**A.** 213 ± 6

**Q.** What about the “Total number of racemes” value (canola cv. Peace; 1×10^−7 M) of the same compound?
**A.** 14 ± 1

**Q.** And the “Total number undeveloped pods” value (canola cv. Peace; 1×10^−7 M)?
**A.** 50 ± 26

**Q.** And the “increase in total number of pods with developing seeds per plant vs control” value (canola cv. Peace; 1×10^−7 M, heat stress (6 hours at 33° C. per day for 6 days))?
**A.** 13%

**Q.** What about the “increase in seed yield vs control” value (canola cv. Peace; 1×10^−7 M, non-heat stress) of the same compound?
**A.** 22%

**Q.** What about the “increase in total number of pods with developing seeds per plant vs control” value (canola cv. Peace; 1×10^−7 M, non-heat stress) of the same compound?
**A.** 10%

**Q.** And the “% pod set per plant” value (canola cv. Peace; 1×10^−7 M)?
**A.** 66 ± 1%

**Q.** And the “Seed yield (g) per plant” value (canola cv. Peace; 1×10^−7 M)?
**A.** 5.5 ± 0.4 g

**Q.** And the “Total number of flowers per plant” value (canola cv. Peace; 1×10^−7 M)?
**A.** 256 ± 12

**Q.** What about the “Total number of pods with developing seeds per plant” value (canola cv. Peace; 1×10^−7 M) of the same compound?
**A.** 170 ± 7

**Q.** What about the “Total number of racemes per plant” value (canola cv. Peace; 1×10^−7 M) of the same compound?
**A.** 10 ± 1

**Q.** What about the “Total number undeveloped pods per plant” value (canola cv. Peace; 1×10^−7 M) of the same compound?
**A.** 17 ± 3
